From paper PMC11423540, “Synthesis and biological evaluation of ortho-phenyl phenylhydroxamic acids containing phenothiazine with improved selectivity for class IIa histone deacetylases” (Journal of Enzyme Inhibition and Medicinal Chemistry, 2024) come the findings set out here.

One data set deals with T1, HDAC7 (Homo sapiens, UniProt Q8WUI4).
T1 sequence (Q8WUI4 1-952): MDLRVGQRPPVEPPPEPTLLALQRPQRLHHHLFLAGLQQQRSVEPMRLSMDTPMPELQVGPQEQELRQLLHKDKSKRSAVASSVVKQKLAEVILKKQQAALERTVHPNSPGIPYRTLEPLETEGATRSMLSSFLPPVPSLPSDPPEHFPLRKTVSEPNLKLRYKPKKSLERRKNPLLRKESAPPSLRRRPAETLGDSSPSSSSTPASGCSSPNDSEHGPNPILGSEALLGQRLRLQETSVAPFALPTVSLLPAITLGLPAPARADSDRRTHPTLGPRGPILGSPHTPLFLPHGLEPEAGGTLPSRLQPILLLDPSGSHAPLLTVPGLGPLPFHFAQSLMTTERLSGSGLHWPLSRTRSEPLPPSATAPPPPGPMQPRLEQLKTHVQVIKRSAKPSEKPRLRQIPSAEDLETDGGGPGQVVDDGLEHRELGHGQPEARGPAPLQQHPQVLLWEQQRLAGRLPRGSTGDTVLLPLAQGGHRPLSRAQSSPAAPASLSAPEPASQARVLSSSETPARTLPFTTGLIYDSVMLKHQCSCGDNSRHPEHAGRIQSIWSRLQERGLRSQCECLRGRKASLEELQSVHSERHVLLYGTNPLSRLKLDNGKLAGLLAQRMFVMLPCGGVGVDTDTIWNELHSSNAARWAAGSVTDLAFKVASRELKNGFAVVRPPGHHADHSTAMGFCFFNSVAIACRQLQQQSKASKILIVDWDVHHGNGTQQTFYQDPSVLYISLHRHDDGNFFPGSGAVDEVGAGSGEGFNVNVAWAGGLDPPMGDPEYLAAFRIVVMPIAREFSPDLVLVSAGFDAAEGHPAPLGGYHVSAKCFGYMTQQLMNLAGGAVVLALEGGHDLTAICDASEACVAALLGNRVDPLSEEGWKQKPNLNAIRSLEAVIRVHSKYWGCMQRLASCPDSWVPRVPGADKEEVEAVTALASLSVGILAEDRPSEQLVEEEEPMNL
Nature of the data set: HDAC inhibition assay, HDAC7.

For the next data set, the target named is HDAC9 (Homo sapiens, UniProt Q9UKV0). Nature of the data set: HDAC inhibition assay, HDAC9.
Sequence of HDAC9 (Q9UKV0 whole entry): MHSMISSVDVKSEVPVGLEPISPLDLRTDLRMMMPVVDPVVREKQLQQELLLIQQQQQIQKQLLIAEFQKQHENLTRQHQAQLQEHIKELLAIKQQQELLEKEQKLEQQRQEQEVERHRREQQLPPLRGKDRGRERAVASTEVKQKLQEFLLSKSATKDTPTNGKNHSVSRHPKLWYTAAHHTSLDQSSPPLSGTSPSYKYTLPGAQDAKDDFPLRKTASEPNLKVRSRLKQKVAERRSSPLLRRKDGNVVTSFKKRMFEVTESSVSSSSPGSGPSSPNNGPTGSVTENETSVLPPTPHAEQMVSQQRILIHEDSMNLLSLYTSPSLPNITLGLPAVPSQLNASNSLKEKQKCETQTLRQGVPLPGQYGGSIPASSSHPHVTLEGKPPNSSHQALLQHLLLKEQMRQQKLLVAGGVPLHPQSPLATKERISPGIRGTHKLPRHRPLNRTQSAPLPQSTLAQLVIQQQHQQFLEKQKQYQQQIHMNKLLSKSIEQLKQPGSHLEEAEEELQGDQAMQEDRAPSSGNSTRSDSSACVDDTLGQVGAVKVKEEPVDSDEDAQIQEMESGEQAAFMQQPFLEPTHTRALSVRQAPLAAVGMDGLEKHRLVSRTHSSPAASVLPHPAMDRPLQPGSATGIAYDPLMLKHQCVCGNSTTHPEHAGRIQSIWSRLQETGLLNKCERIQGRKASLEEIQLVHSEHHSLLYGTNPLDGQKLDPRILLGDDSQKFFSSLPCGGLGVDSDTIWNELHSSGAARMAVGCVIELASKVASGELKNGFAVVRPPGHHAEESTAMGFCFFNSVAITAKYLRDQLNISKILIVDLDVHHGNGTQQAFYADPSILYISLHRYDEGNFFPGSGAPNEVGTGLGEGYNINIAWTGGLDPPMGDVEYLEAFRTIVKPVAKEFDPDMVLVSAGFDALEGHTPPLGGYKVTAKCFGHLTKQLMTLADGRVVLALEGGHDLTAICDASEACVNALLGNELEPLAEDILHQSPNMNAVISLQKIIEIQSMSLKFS
The test system of a further data set is HeLa nuclear HDACs. Nature of the data set: HDAC inhibition assay, HeLa nuclear extract (mixture of class I HDACs 1, 2, and 3). Particulars: read-out: IC50 HeLa nuclear HDACs, Boc-Lys-(AMC) substrate.
The subject of a further data set is SCC2095 cells. The data set is described as follows: Cell viability (MTT) assay, SCC2095. The data set is classed as cell-based. Particulars: 48 h, human oral cancer cells, read-out: IC50 of cytotoxicity SCC2095. As for the experimental part: Human breast cancer MDA-MB-231 cells and gastric cancer SCM-1 cells were purchased from the American Type Culture Collection (Manasas, VA, USA). SCC2095 human oral cancer cells were kindly provided by Professor Susan R. Mallery (The Ohio State University).
To assess cell viability, cells were seeded in three replicates into 96-well plates at a density of 5×10^3/well for 24 h following incubation with compounds at the indicated concentrations. Then, cell viability was assessed with 3–(4,5-dimethylthiazol-2-yl)-2,5-diphenyltetrazolium bromide (MTT) solution (0.5 mg/mL) for 4h as described previously. After removing the medium, 200 µL of DMSO was added, and then the absorbance was measured at 570 nm using a plate reader (BMG LABTECH, Germany).

The next data set addresses T2, HDAC6 (Homo sapiens, UniProt Q9UBN7).
T2 sequence (Q9UBN7 1-1215): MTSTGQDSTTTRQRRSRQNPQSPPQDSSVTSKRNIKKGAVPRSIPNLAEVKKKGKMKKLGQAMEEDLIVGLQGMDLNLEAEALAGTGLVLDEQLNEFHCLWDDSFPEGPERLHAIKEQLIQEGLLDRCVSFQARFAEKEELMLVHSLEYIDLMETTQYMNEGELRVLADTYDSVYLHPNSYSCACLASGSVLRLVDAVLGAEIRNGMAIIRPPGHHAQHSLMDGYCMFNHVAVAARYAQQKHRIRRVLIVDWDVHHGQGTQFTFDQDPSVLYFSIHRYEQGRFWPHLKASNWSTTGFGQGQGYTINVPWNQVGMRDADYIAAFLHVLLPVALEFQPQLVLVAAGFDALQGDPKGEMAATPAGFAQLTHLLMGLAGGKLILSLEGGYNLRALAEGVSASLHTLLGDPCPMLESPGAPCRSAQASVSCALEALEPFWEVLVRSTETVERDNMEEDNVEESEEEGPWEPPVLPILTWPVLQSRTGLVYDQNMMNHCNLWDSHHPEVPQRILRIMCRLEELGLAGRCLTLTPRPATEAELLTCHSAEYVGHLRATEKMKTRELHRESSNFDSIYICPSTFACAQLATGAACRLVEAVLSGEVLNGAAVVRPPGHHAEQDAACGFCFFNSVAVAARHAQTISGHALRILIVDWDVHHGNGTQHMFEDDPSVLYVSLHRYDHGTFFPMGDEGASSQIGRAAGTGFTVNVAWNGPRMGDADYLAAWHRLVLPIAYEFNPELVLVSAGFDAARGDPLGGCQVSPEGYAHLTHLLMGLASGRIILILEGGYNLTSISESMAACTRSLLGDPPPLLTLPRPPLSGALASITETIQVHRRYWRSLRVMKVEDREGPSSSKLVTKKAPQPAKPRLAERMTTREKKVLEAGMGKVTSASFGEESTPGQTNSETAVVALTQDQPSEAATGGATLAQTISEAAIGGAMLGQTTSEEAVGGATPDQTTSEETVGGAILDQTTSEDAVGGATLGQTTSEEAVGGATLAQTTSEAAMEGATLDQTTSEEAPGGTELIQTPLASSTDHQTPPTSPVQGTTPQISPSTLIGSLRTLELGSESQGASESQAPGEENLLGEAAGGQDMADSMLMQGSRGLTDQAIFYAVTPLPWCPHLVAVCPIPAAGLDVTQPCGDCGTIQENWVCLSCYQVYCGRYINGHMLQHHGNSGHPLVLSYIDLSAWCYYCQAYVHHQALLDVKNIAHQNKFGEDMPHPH
Nature of the data set: HDAC inhibition assay, HDAC6.

The next data set has as its target HDAC4 (Homo sapiens, UniProt P56524). The data set is described as follows: HDAC inhibition assay, HDAC4.

SMILES strings stand for the structures. Like-named read-outs stand apart in the source and are kept apart here.

Sequence of HDAC4 (P56524 whole entry): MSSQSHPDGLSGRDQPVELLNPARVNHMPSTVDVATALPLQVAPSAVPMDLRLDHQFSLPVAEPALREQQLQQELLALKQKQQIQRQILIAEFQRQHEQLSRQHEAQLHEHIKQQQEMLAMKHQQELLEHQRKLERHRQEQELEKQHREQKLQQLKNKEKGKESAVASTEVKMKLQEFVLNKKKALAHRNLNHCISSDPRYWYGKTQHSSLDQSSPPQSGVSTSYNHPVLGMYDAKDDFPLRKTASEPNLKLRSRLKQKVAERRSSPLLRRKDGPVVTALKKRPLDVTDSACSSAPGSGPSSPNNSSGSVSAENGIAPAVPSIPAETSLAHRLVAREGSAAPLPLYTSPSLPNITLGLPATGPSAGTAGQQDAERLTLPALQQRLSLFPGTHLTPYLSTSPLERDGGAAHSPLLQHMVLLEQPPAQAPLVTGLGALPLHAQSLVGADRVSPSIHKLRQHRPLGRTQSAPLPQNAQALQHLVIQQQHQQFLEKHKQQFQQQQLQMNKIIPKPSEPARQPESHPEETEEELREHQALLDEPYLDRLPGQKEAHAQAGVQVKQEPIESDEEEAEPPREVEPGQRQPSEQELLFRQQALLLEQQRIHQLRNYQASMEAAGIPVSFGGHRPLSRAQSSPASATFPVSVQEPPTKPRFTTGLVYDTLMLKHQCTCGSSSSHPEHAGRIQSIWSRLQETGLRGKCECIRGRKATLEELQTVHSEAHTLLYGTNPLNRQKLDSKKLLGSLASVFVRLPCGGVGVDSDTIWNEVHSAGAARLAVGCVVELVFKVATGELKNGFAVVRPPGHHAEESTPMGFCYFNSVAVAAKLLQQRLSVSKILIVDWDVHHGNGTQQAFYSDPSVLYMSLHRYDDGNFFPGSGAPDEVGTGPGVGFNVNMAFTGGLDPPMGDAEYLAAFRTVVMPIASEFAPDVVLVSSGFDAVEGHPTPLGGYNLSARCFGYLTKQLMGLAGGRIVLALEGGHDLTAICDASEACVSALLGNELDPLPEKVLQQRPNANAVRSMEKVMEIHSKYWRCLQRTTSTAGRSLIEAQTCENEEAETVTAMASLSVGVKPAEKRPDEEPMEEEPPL

For orientation: IC50 means the concentration needed to halve the response being measured. On to `COc1ccc2c(c1)N(Cc1ccc(C(=O)NO)c(-c3ccccc3)c1)c1ccccc1S2` [Compound 7d, N-Hydroxy-4-[(2-methoxy-10H-phenothiazin-10-yl)methyl]-2-phenylbenzamide], for which the half-maximal inhibitory concentration (IC50) against HDAC7 is 0.71 ± 0.12 µM; at HDAC9, 0.64 ± 0.08 µM; in the data set with HeLa nuclear HDACs, above 40 µM; in the data set with SCC2095 cells (Homo sapiens), 3.2 µM; at HDAC6 it was 3.68 ± 0.41 µM; against HDAC4, 0.8 ± 0.01 µM.

As to `N#Cc1ccc2c(c1)N(Cc1ccc(C(=O)NO)c(-c3ccc(F)cc3)c1)c1ccccc1S2` [Compound 19c, N-Hydroxy-4-[(2-cyano-10H-phenothiazin-10-yl)methyl]-2–(4-fluorophenyl)benzamide], the concentration for half-maximal inhibition (IC50) on HDAC7 is 0.54 ± 0.06 µM; against HDAC9, 0.72 ± 0.03 µM; in the data set with HeLa nuclear HDACs, above 40 µM; in the data set on SCC2095 cells (Homo sapiens), 2.6 µM; against HDAC6, 4.22 ± 0.18 µM; against HDAC4, 1 ± 0.03 µM.

Consider `O=C(NO)c1ccc(CN2c3ccccc3Sc3ccccc32)cc1-c1ccccc1` [Compound 7a, N-Hydroxy-4-[(10H-phenothiazin-10-yl)methyl]-2-phenylbenzamide], for which the half-inhibitory concentration (IC50) is 0.71 ± 0.01 µM on HDAC7; 0.42 ± 0.06 µM on HDAC9; above 40 µM in the data set on HeLa nuclear HDACs; 3.9 µM in the data set with SCC2095 cells (Homo sapiens); 3.2 ± 0.77 µM on HDAC6; 0.48 ± 0.04 µM against HDAC4.

On to `NC(=O)c1ccc2c(c1)N(Cc1ccc(C(=O)NO)c(-c3ccccc3)c1)c1ccccc1S2` [Compound 7h], for which the IC50 on HDAC7 was 0.16 ± 0.01 µM; on HDAC9 it was 0.11 ± 0.01 µM; with HeLa nuclear HDACs it was above 40 µM; with SCC2095 cells (Homo sapiens), 3.6 µM; at HDAC6, 0.75 ± 0.06 µM; at HDAC4 it was 0.2 ± 0.05 µM. Further, the “HDAC6 inhibitory activity, fold less potent than LH4f” value at HDAC6 (versus LH4f) stood at 150 fold.

In the case of `O=C(NO)c1ccc(CN2c3ccccc3Sc3ccc(C(F)(F)F)cc32)cc1-c1ccccc1` [Compound 7c, N-Hydroxy-4-{[2-(trifluoromethyl)-10H-phenothiazin-10-yl]methyl}-2-phenylbenzamide], the half-inhibitory concentration (IC50) against HDAC7 is 0.23 ± 0.05 µM; against HDAC9, 0.27 ± 0.02 µM; in the data set on HeLa nuclear HDACs it was above 40 µM; with SCC2095 cells (Homo sapiens) it was 6 µM; against HDAC6 it was 3.19 ± 0.11 µM; at HDAC4, 0.28 ± 0.04 µM.

Consider `CC(=NO)c1ccc2c(c1)N(Cc1ccc(C(=O)NO)c(-c3ccccc3)c1)c1ccccc1S2` [Compound 7f, N-Hydroxy-4-{2-[1-(hydroxyimino)ethyl]-10H-phenothiazin-10-yl}methyl-2-phenylbenzamide], for which the IC50 at HDAC7 is 0.41 ± 0.02 µM; at HDAC9, 0.32 ± 0.07 µM; in the data set on HeLa nuclear HDACs, above 40 µM; in the data set with SCC2095 cells (Homo sapiens), 4.6 µM; against HDAC6, 1.61 ± 0.09 µM; against HDAC4 it was 0.58 ± 0.07 µM.

`O=C(NO)c1ccc(CN2c3ccccc3Sc3ccc(Cl)cc32)cc1-c1ccccc1` [Compound 7b, N-Hydroxy-4-[(2-chloro-10H-phenothiazin-10-yl)methyl]-2-phenylbenzamide]: the IC50 is 0.23 ± 0.02 µM against HDAC7; 0.2 ± 0.01 µM at HDAC9; above 40 µM in the data set on HeLa nuclear HDACs; 5 µM in the data set on SCC2095 cells (Homo sapiens); 2.12 ± 0.37 µM against HDAC6; 0.28 ± 0.03 µM on HDAC4.

Take `COc1cc(-c2cc(CN3c4ccccc4Sc4ccc(C#N)cc43)ccc2C(=O)NO)cc(OC)c1OC` [Compound 19a, N-Hydroxy-4-[(2-cyano-10H-phenothiazin-10-yl)methyl]-2–(3,4,5-trimethoxyphenyl)benzamide]: the IC50 against HDAC7 is 17.9 ± 0.92 µM; at HDAC9, 18.6 ± 0.96 µM; with HeLa nuclear HDACs, above 40 µM; with SCC2095 cells (Homo sapiens), 7.6 µM; against HDAC6, 7.6 ± 0.36 µM; at HDAC4, above 40 µM.

With `O=C(NO)c1ccc(CNC23CC4CC(CC(C4)C2)C3)cc1-c1ccccc1` [Compound 7i, N-Hydroxy-4-[(adamantan-1-ylamino)methyl]-2-phenylbenzamide], the 50% inhibitory concentration (IC50) at HDAC7 is 12.9 ± 2.14 µM; against HDAC9 it was 23.7 ± 4.14 µM; in the data set with HeLa nuclear HDACs, above 40 µM; in the data set with SCC2095 cells (Homo sapiens), above 10 µM; against HDAC6 it was above 40 µM; at HDAC4 it was 18.7 ± 2.16 µM.

Take `O=C(NO)c1ccc(CN2CCCc3ccccc3C2)cc1-c1ccccc1` [Compound 7j, N-Hydroxy-4-[(1,3,4,5-tetrahydro-2H-benzo[c]azepin-2-yl)methyl]-2-phenylbenzamide]: the IC50 was 0.84 ± 0.03 µM against HDAC7; 0.95 ± 0.05 µM against HDAC9; above 40 µM in the data set with HeLa nuclear HDACs; above 10 µM in the data set with SCC2095 cells (Homo sapiens); 18.22 ± 0.02 µM at HDAC6; 0.91 ± 0.07 µM at HDAC4.

As to `COc1ccc(-c2cc(CN3c4ccccc4Sc4ccc(C#N)cc43)ccc2C(=O)NO)cc1` [Compound 19b, N-Hydroxy-4-[(2-cyano-10H-phenothiazin-10-yl)methyl]-2–(4-methoxyphenyl)benzamide], the IC50 was 4.03 ± 0.16 µM against HDAC7; 5.34 ± 0.4 µM against HDAC9; above 40 µM with HeLa nuclear HDACs; 1.8 µM with SCC2095 cells (Homo sapiens); 4.03 ± 0.25 µM at HDAC6; 6.28 ± 0.13 µM on HDAC4.

Turning to `COc1cc([C@@H]2c3cc4c(cc3[C@@H](O[C@@H]3O[C@@H]5CO[C@@H](C)O[C@H]5[C@H](O)[C@H]3O)[C@H]3COC(=O)[C@H]23)OCO4)cc(OC)c1O` [Etoposide, reference compound], the IC50 in the data set with SCC2095 cells (Homo sapiens) amounted to 3.3 ± 0.5 µM; in the data set with SCC2095 cells, 2.3 µM.
